Experiment [1] concerns Escherichia coli. Briefly: Antibacterial activity against Escherichia coli was determined at 100 uM. Format: functional.
Experiment [2] deals with Escherichia coli. In words: (§1) In vitro dissociation constant of compound required for inhibition of Escherichia coli translation was determined. The class given is functional, organism-based.
Experiment [3] deals with Staphylococcus aureus. Briefly: Antibacterial activity against Staphylococcus aureus was determined at 100 uM. Format: functional.
Experiment [4] concerns Escherichia coli. The description is as §1. Format: functional.
The subject of experiment [5] is Staphylococcus aureus. In words: Minimal inhibitory concentration required against Staphylococcus aureus ATCC 13709 was determined. Format: functional.
Experiment [6] concerns Escherichia coli. In words: Minimal inhibitory concentration required against Escherichia coli ATCC 25922 was determined; values ranges from 13-25. The class given is functional.
For experiment [7], the system named is Escherichia coli. In words: Minimal inhibitory concentration required against Escherichia coli ATCC 25922 was determined; values ranges from 6-13. The class given is functional.
For experiment [8], the system named is Staphylococcus aureus. In words: Minimal inhibitory concentration required against Staphylococcus aureus ATCC 13709 was determined; values ranges from […]. The class given is functional.
In experiment [9] the test system is Escherichia coli. Briefly: In vitro dissociation constant of compound required for inhibition of Escherichia coli translation by 50% was determined. The class given is functional.
The subject of experiment [10] is Staphylococcus aureus. In words: Minimal inhibitory concentration required against Staphylococcus aureus ATCC 13709 was determined; values ranges from 3-6. The class given is functional.
Experiment [11] concerns Proteus vulgaris. In words: Minimal inhibitory concentration required against Proteus vulgaris was determined; values ranges from 50-100.
In experiment [12] the test system is Enterococcus faecalis. Briefly: Minimal inhibitory concentration required against Enterococcus faecalis was determined; values ranges from 3-6.
Experiment [13] deals with Streptococcus pyogenes. Briefly: Minimal inhibitory concentration required against Streptococcus pyogenes was determined; values ranges from 3-6.
The test system of experiment [14] is Escherichia coli. In words: Minimal inhibitory concentration required against Escherichia coli ATCC 25922 was determined; values ranges from 25-50. Format: functional.
The test system of experiment [15] is Staphylococcus aureus. Briefly: Minimal inhibitory concentration required against Staphylococcus aureus ATCC 13709 was determined; values ranges from 50-100. The class given is functional.

A value given as a limit tells only on which side of the number the result lay.

Turning to `Cc1nc2ccc(C(=O)Nc3cccc(-c4ccc(C(=O)NC(C(=O)N5CCNCC5)c5ccc(OCCCN(C)C)cc5)o4)c3)cc2nc1C` (configuration not stated), the inhibition at 100 µM in experiment [1] and in experiment [3] was < 75% in each case. In experiment [2], this compound gave an IC50 of 1 µM.

In the case of `NCC[C@@H](NC(=O)c1ccc(-c2cccc(NC(=O)c3ccccn3)c2)o1)C(=O)N1CCNCC1`, the inhibition at 100 µM in experiment [1] and in experiment [3] was < 75% in each case. For the same compound, the IC50 in [2] was > 100 µM.

Turning to `CN(C)CCCOc1ccc(C(NC(=O)c2ccc(-c3cccc(NS(=O)(=O)c4ccc5nc(O)c(O)nc5c4)c3)o2)C(=O)N2CCNCC2)cc1` (configuration not stated), the inhibition at 100 µM in [1] and in experiment [3] was < 75% throughout. Besides, the IC50 in experiment [2] was 33 µM.

Turning to `CC(=O)Nc1cccc(-c2ccc(C(=O)NC(C(=O)N3CCNCC3)c3ccc(OCCCN(C)C)cc3)o2)c1` (configuration not stated), the inhibition at 100 µM in experiment [1] and in [3] was < 75% each time. Also, the IC50 in [2] was > 100 µM.

For the compound `CN(C)CCCOc1ccc(C(NC(=O)c2ccc(-c3cccc(NC(=O)c4ccccn4)c3)o2)C(=O)N2CCNCC2)cc1` (configuration not stated), the inhibition at 100 µM in experiment [1] and in experiment [3] was < 75% throughout. In experiment [2], the IC50 worked out at 20 µM.

In experiment [4], `NCC[C@@H](NC(=O)c1ccc(-c2ccccc2)o1)C(=O)N1CCNCC1` gave a Kd of 50 µM.

For `NCC[C@@H](NC(=O)c1ccc(-c2cccc(NC(=O)c3cnccn3)c2)o1)C(=O)N1CCNCC1`, the inhibition at 100 µM in experiment [1] and in experiment [3] was < 75% each time. Also, in experiment [2], the IC50 was > 100 µM.

Regarding `CN(C)CCCOc1ccc(C(NC(=O)c2ccc(-c3cccc(NC(=O)c4nncs4)c3)o2)C(=O)N2CCNCC2)cc1` (configuration not stated), the inhibition at 100 µM in [1] and in experiment [3] was < 75% each time. Moreover, in experiment [2], the IC50 is 13 µM.

Turning to `CN(C)CCCOc1ccc(C(NC(=O)c2ccc(-c3cccc(NC(=O)c4cnccn4)c3)o2)C(=O)N2CCNCC2)cc1` (configuration not stated), the inhibition at 100 µM in experiment [1] and in [3] was < 75% each time. This compound came in with an IC50 in experiment [2] of 15 µM.

As for `CN(C)CCCOc1ccc(C(NC(=O)c2ccc3nc(O)c(O)nc3c2)C(=O)N2CCNCC2)cc1` (configuration not stated), the inhibition at 100 µM in experiment [1] and in experiment [3] was < 75% each time. Further, the IC50 in experiment [2] was > 200 µM.

As to `CCc1c(C)nc2ccc(C(=O)Nc3cccc(-c4ccc(C(=O)NC(C(=O)N5CCNCC5)c5ccc(OCCCN(C)C)cc5)o4)c3)cc2c1Cl` (configuration not stated), the MIC in experiment [5] is > 100 µM; in [6] it was < 25 µM. In experiment [2], this compound showed an IC50 of 0.78 µM.

Turning to `CN(C)CCCOc1ccc(C(NC(=O)c2ccc(-c3cccc(NC(=O)c4ccc5nc(O)c(O)nc5c4)c3)o2)C(N)=O)cc1` (configuration not stated), the inhibition at 100 µM in experiment [1] and in experiment [3] was < 75% each time. In addition, 10 µM corresponded to half-maximal inhibition in [2] (IC50).

With `CN(C)CCCOc1ccc(C(NC(=O)c2ccc(-c3cccc(NC(=O)c4ccc5nc(O)c(O)nc5c4)c3)o2)C(=O)N2CCNCC2)cc1` (configuration not stated), the inhibition at 100 µM in experiment [1] and in experiment [3] was < 75% in each case. Besides, the IC50 in experiment [2] was found to be 3 µM.

Consider `CN(C)CCCOc1ccc(C(NC(=O)c2ccc(-c3cccc(NC(=O)c4ccc(Br)cc4)c3)o2)C(=O)N2CCNCC2)cc1` (configuration not stated), for which the MIC in [7] was < 13 µM; in [8] it was < 25 µM. 5 µM corresponded to half-maximal inhibition in [2] (IC50).

On to `NCC[C@@H](NC(=O)c1ccc(-c2cccc(N)c2)o1)C(=O)N1CCNCC1`, for which the inhibition at 100 µM in experiment [1] and in [3] was < 75% in each case. The IC50 in [2] was > 100 µM.

As to `CN(C)CCCOc1ccc(C(NC(=O)c2ccc(-c3cccc(NC(=O)c4cnc5ccccc5c4)c3)o2)C(=O)N2CCNCC2)cc1` (configuration not stated), the inhibition at 100 µM in [1] and in experiment [3] was < 75% in each case. The IC50 in [2] amounted to 5 µM.

In the case of `NCC[C@@H](NC(=O)c1ccc(-c2cccc(NS(=O)(=O)c3ccc4nc(O)c(O)nc4c3)c2)o1)C(=O)N1CCNCC1`, the inhibition at 100 µM in [1] and in [3] was < 75% each time. Moreover, the IC50 in [2] was > 100 µM.

`CN(C)CCCOc1ccc(C(NC(=O)c2ccc(-c3cccc(NC(=O)c4ccccc4)c3)o2)C(=O)N2CCNCC2)cc1` (configuration not stated): the inhibition at 100 µM in [1] and in [3] was < 75% each time. Also, the IC50 in experiment [2] was determined as 40 µM.

On to `Cc1cc(Cl)c2cc(C(=O)Nc3cccc(-c4ccc(C(=O)NC(C(=O)N5CCNCC5)c5ccc(OCCCN(C)C)cc5)o4)c3)ccc2n1` (configuration not stated), for which the inhibition at 100 µM in [1] and in experiment [3] was < 75% each time. The same compound displayed an IC50 in experiment [2] of 2 µM.

Turning to `Cc1nc2ccc(C(=O)Nc3cccc(-c4ccc(C(=O)N[C@H](CCN)C(=O)N5CCNCC5)o4)c3)cc2nc1C`, the inhibition at 100 µM in [1] and in experiment [3] was < 75% throughout. Further, inhibition in experiment [2] was half-maximal at 15 µM (IC50).

Regarding `CN(C)CCCC(=O)Nc1cccc(-c2ccc(C(=O)N[C@H](CCN)C(=O)N3CCNCC3)o2)c1`, the inhibition at 100 µM in [1] and in experiment [3] was < 75% each time. Besides, the IC50 in experiment [2] was > 100 µM.

As for `CN(C)CCCOc1ccc(C(NC(=O)c2ccc(-c3cccc(NC(=O)C4CCCCC4)c3)o2)C(=O)N2CCNCC2)cc1` (configuration not stated), the inhibition at 100 µM in [1] and in experiment [3] was < 75% in each case. Moreover, the IC50 in experiment [2] is > 100 µM.

On to `CN(C)CCCOc1ccc(C(NC(=O)c2ccc(-c3cccc(NC(=O)c4ccc5ncccc5c4)c3)o2)C(=O)N2CCNCC2)cc1` (configuration not stated), for which the inhibition at 100 µM in experiment [1] and in experiment [3] was < 75% throughout. The compound also showed an IC50 in experiment [2] of 6 µM.

Regarding `NCC[C@@H](NC(=O)c1ccc(-c2cccc(NC(=O)c3ccc4nc(O)c(O)nc4c3)c2)o1)C(=O)N1CCNCC1`, the inhibition at 100 µM in experiment [1] and in experiment [3] was < 75% each time. The same compound had an IC50 in experiment [2] of 14 µM. In experiment [9], this compound had a Kd of 6.5 µM.

For the compound `CN(C)CCCOc1ccc(C(NC(=O)c2ccc(-c3cccc(NC(=O)c4ccc(-c5ccccc5)cc4)c3)o2)C(=O)N2CCNCC2)cc1` (configuration not stated), the MIC in experiment [7] is < 13 µM; in experiment [10] it was < 6 µM; in [11] it was < 100 µM; in experiment [12], < 6 µM; in [13], < 6 µM. In addition, half-maximal inhibition in experiment [2] (IC50) was put at 9 µM.

As to `CN(C)CCCOc1ccc(C(NC(=O)c2ccc(-c3cccc(N)c3)o2)C(=O)N2CCNCC2)cc1` (configuration not stated), the inhibition at 100 µM in experiment [1] and in experiment [3] was < 75% each time. For the same compound, the IC50 in experiment [2] was > 100 µM.

With `CN(C)CCCOc1ccc(C(NC(=O)c2ccc(-c3cccc(NC(=O)c4ccc5ccccc5c4)c3)o2)C(=O)N2CCNCC2)cc1` (configuration not stated), the figures for the MIC in experiment [14] and in experiment [15] were < 50 µM and < 100 µM, respectively. Moreover, in experiment [2], the IC50 stood at 10 µM.

In turn, `C=CCNC(=O)c1ccc2nc(O)c(O)nc2c1` registered a Kd in [4] of 150 µM.

With `CN(C)CCCOc1ccc(C(NC(=O)c2ccc(-c3cccc(NC(=O)c4ccccc4I)c3)o2)C(=O)N2CCNCC2)cc1` (configuration not stated), the inhibition at 100 µM in experiment [1] and in [3] was < 75% each time. Besides, in experiment [2], the IC50 turned out to be 38 µM.

As to `CN(C)CCCOc1ccc(C(NC(=O)c2ccc(-c3cccc(NC(=O)c4ccc5cc(Br)ccc5c4)c3)o2)C(=O)N2CCNCC2)cc1` (configuration not stated), the values for the minimum inhibitory concentration (MIC) in [7] and in experiment [8] were < 13 µM and < 25 µM, respectively. Besides, the 50% inhibitory concentration (IC50) in experiment [2] is 5 µM.

For the compound `CN(C)CCCOc1ccc(C(NC(=O)c2ccc(-c3cccc(NC(=O)CCCN(C)C)c3)o2)C(=O)N2CCNCC2)cc1` (configuration not stated), the inhibition at 100 µM in experiment [1] and in experiment [3] was < 75% throughout. Further, the IC50 in [2] is > 100 µM.

For the compound `NCC[C@@H](NC(=O)c1ccc(-c2cccc(NC(=O)c3cnc4ccccc4c3)c2)o1)C(=O)N1CCNCC1`, the inhibition at 100 µM in experiment [1] and in [3] was < 75% throughout. Besides, in experiment [2], the midpoint of inhibition, the IC50, lay at 46 µM.

With `CN(C)CCCOc1ccc(C(NC(=O)c2ccc(-c3cccc(NC(=O)c4ccc(Cl)c(Cl)c4)c3)o2)C(=O)N2CCNCC2)cc1` (configuration not stated), the inhibition at 100 µM in [1] and in [3] was < 75% in each case. In addition, in experiment [2], half-maximal inhibition (IC50) required 4 µM.

For `NCC[C@@H](NC(=O)c1ccc(-c2cccc(NC(=O)c3nncs3)c2)o1)C(=O)N1CCNCC1`, the inhibition at 100 µM in [1] and in [3] was < 75% throughout. The IC50 in experiment [2] was > 100 µM.

As a reminder, the inhibition is the drop in the measured response relative to a control, in per cent. A higher inhibition goes with strong suppression. As a reminder, the IC50 is the point on the concentration scale where inhibition reaches its midpoint. Lower therefore signals inhibition by little substance. As a reminder, the Kd is a measure of binding affinity in units of concentration. A low value points to higher affinity. Usually MIC stands for the smallest concentration in the dilution series that meets the test's criterion for growth inhibition.

These data come from ChEMBL document CHEMBL1137914, “Optimizing the antibacterial activity of a lead structure discovered by "SAR by MS" technology” (Bioorg Med Chem Lett, 2004).
